According to patent US9969744B2, “Compounds for use in cognition improvement” (FUNDACIÓN PARA LA INVESTIGACIÓN MÉDICA APLICADA, priority 2014, dated 2018):

Tests used:
PDE9A = biological target: T1, PDE9A (Homo sapiens, UniProt O76083); test: PDE enzyme activity assay (HTRF cGMP), PDE9A; format: biochemical; conditions: recombinant enzyme; read-out: PDE9A inhibition (IC50)
T1 construct: they are full-length with N-terminal GST tag; GST (N); purchased BPS Biosciences 60090; host or cells: baculovirus infected Sf9 cells

[1] = test system: acetylated histone 3 at Lys9 (AcH3K9); test: HDAC activity using SHSY-5Y cell line (Western blot, histone 3 acetylation); format: cell-based, human; set-up: key: basal x1 means no increment (+); basal x1.4≤(++)<basal x2; basal x2≤(+++)<basal x3; basal x3≤(++++); N.E. means No Effect; conditions: SHSY-5Y cells, 24 hours, compound concentration 1 μM
Description: HDAC inhibition leads to the corresponding functional response, increase in AcH3 level. Therefore, the cellular assay to conclude HDAC activity was assessed by Western blot analysis using specific antibodies against acetylated histone 3 at Lys9 (AcH3K9). Cell cultures were treated at 100 nM, 500 nM, 1 μM and/or 5 μM with compounds of the invention or known PDE inhibitors during 24 hours and, Table 1 (below) describes the functional activity: histone 3 acetylation level (AcH3) vs basal (no treatment).
A human neuroblastoma cell line (SHSY-5Y) was used. Cell line was obtained from ATCC (CRL-2266) and cultured in 35 mm plates (Becton Dickinson, NJ).
The cells were grown to 90% confluence at 37° C. in an atmosphere of 5% CO2 and in Dulbecco's modified Eagle's medium supplemented with Glutamax (Gibco, Invitrogen, CA), 100 units/ml penicillin/streptomycin, 1×MEM nonessential amino acids and 10% fetal bovine serum (Gibco, Invitrogen, CA).
Cells were collected and sonicated in a buffer containing a cold lysis buffer with protease inhibitors (0.2 M NaCl, 0.1 M HEPES (4-(2-hydroxyethyl)-1-piperazineethanesulfonic acid), 10% glycerol, 200 mM NaF, 2 mM Na4P2O7, 5 mM EDTA (ethylenediaminetetraacetic acid), 1 mM EGTA (ethylene glycol tetraacetic acid), 2 mM DTT (dithiothreitol), 0.5 mM PMSF (phenylmethylsulfonyl fluoride), 1 mM Na3VO4 and Complete Protease Inhibitor Cocktail, Roche Diagnostics), centrifuged at 14,000×g 4° C. for 20 min and the supernatant was aliquoted and stored at −80° C. Total protein concentrations were determined using the BioRad Bradford protein assay (BioRad Laboratories).
Protein samples were mixed with Laemmli sample buffer, resolved onto Sodium Dodecyl Sulfate (SDS)-polyacrylamide gels and transferred to nitrocellulose membrane. The membranes were blocked with 5% milk, 0.05% Tween-20 in PBS (Phosphate-Buffered Saline) or TBS (Tris-Buffered Saline) followed by overnight incubation with the following primary antibodies: rabbit polyclonal anti-acetylated Histone 3 (acetyl K9) (Cell Signalling Technology), rabbit polyclonal anti-total Histone 3 (Millipore), in the corresponding buffer. All the antibodies were used at 1:1000 dilution except the mouse monoclonal anti-β-actin which was used at 1:50.000. Following two washes in TBS/Tween20 and one wash in TBS alone, immunolabeled protein bands were detected by using HRP-conjugated anti-rabbit or anti-mouse antibody (Santa Cruz Biotechnology; dilution 1:5.000) following an enhanced chemiluminescence system (ECL, GE Healthcare Bioscience, Buckinghamshire, UK), and autoradiographic exposure to HyperfilmtECL (GE Healthcare Bioscience). Quantity One™ software v.4.6.3 (Bio-Rad) was used for quantification.

[2] = test system: phosphorylated tau (p-Tau); test: AD-related markers in Tg2576 neurons: pTau; format: cell-based, mouse; conditions: Mus musculus, Primary neuron, references, read-out: pTau EC50 (50% decrease in pTau levels over basal)
Description: The effects of the compounds on amyloid pathology were analysed in primary cultures after 21 days in-vitro (DIV) of neurons derived from the hippocampus and cortex of Tg2576 mouse embryos. Tg2576 mice express the human 695-aa isoform of APP (hAPP) containing the Swedish double mutation, which favours A3 production. Neurons were treated for two days and collected at day 3, 24 h after the last treatment. First it was analysed the effect of the compounds on hAPP processing by the amyloidogenic pathway by measuring the carboxyl terminal fragment AβPP (C99), which is the precursor of Aβ42. […]
It was next analyzed the effect of the compounds on levels of phosphorylated tau (p-Tau) in the same samples, another marker of AD, using a phospho-specific antibody (AT8) that recognizes hyperphosphorylated epitopes on Ser202/Thr205. […]
To analyze APP-derived fragments and p-Tau levels in primary neuronal cultures, cells were collected in a buffer containing SDS (2%), Tris-HCl (10 mM, pH 7.4), protease inhibitors (1 mM phenylmethylsulfonyl fluoride (PMSF) and Complete Protease Inhibitor Cocktail: Roche Diagnostics) and phosphatase inhibitors (0.1 mM Na3VO4 and 1 mM NaF). […] Aliquots of the supernatant were frozen at […] and their protein concentrations determined by the Bradford method using the Bio-Rad protein assay (Bio-Rad, Hercules, Calif., USA). […]

pCREB = test: In-vivo pCREB in hippocampus of wild type mice; conditions: single dose of 1 mg/Kg i.p.
Description: (§1) Another group of animals received the vehicle (1/1/8, v:v:v, DMSO/Tween 20/saline). One hour later, mice were sacrificed by cervical dislocation and their hippocampus was quickly dissected from the brains. Total tissue homogenates were obtained by homogenizing the hippocampus in a cold lysis buffer with protease inhibitors (0.2 M NaCl, 0.1 M HEPES, 10% glycerol, 200 mM NaF, 2 mM Na4P2O7, 5 mM EDTA, 1 mM EGTA, 2 mM DTT, 0.5 mM PMSF, 1 mM Na3VO4 and Complete Protease Inhibitor Cocktail, Roche Diagnostics). The homogenate was then centrifuged at 14,000×g at 4° C. for 20 min and the supernatant aliquoted and stored at −80° C. Total protein concentrations were determined using the BioRad Bradford protein assay (BioRad Laboratories). Protein samples were analyzed as described in the “in vitro” section.

AcH3 = test: In-vivo AcH3 in hippocampus of wild type mice; set-up: key: basal x1 means no increment (+); basal x1.4≤(++)<basal x2; basal x2≤(+++)<basal x3; basal x3≤(++++); N.E. means No Effect; conditions: single dose of 1 mg/Kg i.p.
Description: as §1

pTau = test: AD-related markers in Tg2576 mice: pTau; format: in vivo; conditions: hippocampal homogenates, footnote: single dose of 1 mg/Kg i.p.

T1 sequence (O76083 1-533 isoform O76083-2): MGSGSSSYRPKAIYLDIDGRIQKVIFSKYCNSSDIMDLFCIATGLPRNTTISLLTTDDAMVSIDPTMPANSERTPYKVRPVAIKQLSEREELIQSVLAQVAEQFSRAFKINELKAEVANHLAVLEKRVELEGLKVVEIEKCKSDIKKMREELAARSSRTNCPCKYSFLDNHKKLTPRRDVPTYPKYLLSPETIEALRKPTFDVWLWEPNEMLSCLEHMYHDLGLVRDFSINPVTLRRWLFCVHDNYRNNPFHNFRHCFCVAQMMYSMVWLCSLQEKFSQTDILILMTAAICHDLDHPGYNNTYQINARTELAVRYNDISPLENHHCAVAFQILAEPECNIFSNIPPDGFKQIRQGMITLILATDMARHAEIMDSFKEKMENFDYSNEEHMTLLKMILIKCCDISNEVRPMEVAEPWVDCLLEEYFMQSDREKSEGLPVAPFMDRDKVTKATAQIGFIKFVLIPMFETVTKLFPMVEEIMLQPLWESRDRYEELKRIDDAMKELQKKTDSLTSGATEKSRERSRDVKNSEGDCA

IC50 (PDE9A): > 10 µM | EC50 [2]: 10 to 1000 nM
SMILES: CN1CC(=O)N2[C@H](c3ccc4c(c3)OCO4)c3[nH]c4ccccc4c3C[C@@H]2C1=O [Tadalafil]
AcH3: increment in Histone 3 acetylation level vs basal [1]: N.E. | pCREB increment vs basal (pCREB): +++ (basal x2≤(+++)<basal x3) | AcH3 increment vs basal (AcH3): N.E. | pTau biological response vs basal (pTau): +++ (basal x2≤(+++)<basal x3)
